Like-named read-outs stand apart in the source and are kept apart here.
Tests used:
LUHMES cells = test: MitoMet (UKN4b) neurite outgrowth assay; assay type: cell-based, human; details: for IC25: read-out: BMC25 neurite outgrowth; for fold change between BMC25 values of parent and metabolite (potency ratio, parent divided by metabolite): listed under the metabolite, >1 = metabolite more potent
Experimental: Figure 1 (A) A strategy scheme to assess metabolite-mediated hazard in NAMs used for neurotoxicity or developmental neurotoxicity. Parent and metabolite compounds are tested separately in the respective assay. This strategy is applicable when there is prior knowledge of metabolite formation. A decision rule based on the relative toxicities (X) of the parent and metabolite may be applied to decide whether next-generation risk assessment (NGRA) should be applied to the metabolite. The value of X may be defined according to the problem formulation and the NAM used. (B) An assay scheme of the neurite outgrowth assay used here for exemplification: Proliferating LUHMES cells were replated one day before differentiation was initiated (day −1). After two days (day 2) in differentiation medium, the cells were replated into assay format (96-well). At this point, neurite growth was re-initiated. The cells were treated with toxicants 1 h after replating. Neurite outgrowth and viability were determined 24 h later, using automated high content imaging. (C) Comparison of neurite outgrowth of cultures treated with bromethalin and desmethyl-bromethalin one exemplary parent/metabolite pair (chemical structures shown). […] The curves are based on data from three independent experiments and were fitted using a four-parameter Hill function. Data points shown are arithmetic means of data from independent experiments ±SEM. In each independent experiment, the technical replicates were measured and averaged. A benchmark response (BMR) of 25% was used as specified in the detailed assay description, and the respective benchmark concentration (BMC25) was determined. […] (D) Microscopic images of calcein-stained LUHMES cells. Similar images are used for neurite quantification. Treatment with 40 nM of the parent (left) or metabolite (right). The scale bar in orange corresponds to 50 µm. […] It stands under panel C and to the right of panel D, and was assigned to C.
The MitoMet neurite outgrowth assay was performed as previously described. In brief, all cell culture dishes and flasks were pre-coated with 50 μg/mL poly-l-ornithine (PLO) and 1 μg/mL fibronectin. Proliferating LUHMES cells were maintained in AdvDMEM/F12 containing L-glutamine (2 mM), N2 supplement (1x), and FGF (40 ng/mL). For pre-differentiation, the cells were replated at a density of 46,000 cells/cm^2 one day prior to the induction of differentiation (defined as the day of differentiation, Day −1). Differentiation was initiated by exchanging the culture medium for AdvDMEM/F12 supplemented with L-glutamine (2 mM), N2 supplement (1x), dibutyryl-cAMP (1 mM), tetracycline (1 µg/mL), and GDNF (2 ng/mL). After two days of differentiation (Day 2), the cells were replated (100,000 cells/cm^2) into 96-well plates. The final assay medium consisted of glucose-free AdvDMEM/F12 supplemented with galactose (18 mM), L-glutamine (2 mM), and tetracycline (1 µg/mL). One hour after replating, the cells were treated with a 10× concentrated stock solution of the test compound. Neurite outgrowth and viability were determined 24 h later, using automated high content imaging.
The image acquisition and analysis were conducted according to established protocols. The cells were stained with Hoechst H-33342 (1 µg/mL) to visualise nuclei and calcein-AM (1 µM) to label viable cell structures. Fluorescent images were acquired using an automated imaging system.

[1] = system: hiPSC-derived neural crest-like cells; test: S9 metabolisation module followed by cMINC migration assay; assay type: cell-based, human; details: for EC25 migration (+NADPH): metabolite mixture generated with NADPH; for EC25 migration (+NADPH) / EC25 migration (−NADPH): nominal concentration of parent; for EC25 migration (−NADPH): metabolite mixture generated without NADPH; for fold change of potency (EC25) between NADPH-independent and -dependent metabolite mixtures: potency increased with NADPH
Experimental: Figure 6 The transfer of the metabolisation module to the neural crest cell migration assay (cMINC). (A) A schematic of the cMINC (circular migration of neural crest cells) assay. The cells were seeded around a central stopper to create a cell-free circular area. Migration was initiated 24 h after seeding by removing the stopper. This is defined as the day of migration (DoM) 0. On DoM 1, the cells were exposed to toxicants. After 24 h of exposure, both cell migration and viability were quantified, using automated high-content imaging. (B) Compatibility of the metabolisation module (preincubation with 500 µg/mL S9 at 37 °C for 2 h) with the cMINC assay: The setup was as described in Figure 4 and as exemplified in Figure 5A. No compound was added (solvent control). The S9 mixture (at 500 µg/mL ± NADPH) was added to the normal cell culture medium of the cMINC assay (so that the addition was 10% of the total volume). Data are from three independent experiments. (C,D) The concentration-dependent effects on migration were evaluated for metabolite mixtures generated from bromethalin (C) or chlorfenapyr (D). […] The arrows indicate the direction of sensitivity shift between NADPH-dependent and -independent metabolite mixtures, with accompanying fold change values. The concentrations are given as nominal concentrations of the parent compound. Abbreviations: n.s., not significant. TEXT PRINTED IN THE PICTURE: (C) Bromethalin: x30 | (D) Chlorfenapyr: x15
The MINC assay was performed as previously described. Briefly, 96-well plates were prepared by inserting a central 2 mm diameter stopper (Platypus Technologies, Madison, WI, USA) into pre-coated wells with a composite poly-L-ornithine (PLO; 10 µg/mL), fibronectin (1 µg/mL), and laminin (1 µg/mL) matrix. Cryopreserved human induced pluripotent stem cell (hiPSC)-derived neural crest-like cells were thawed and seeded at a density of 95,000 cells/cm^2 around the stopper to create a defined, cell-free circular area. The cells were cultured in N2-S medium supplemented with […] of the cytokines EGF and FGF. After 24 h, the stoppers were removed and the medium refreshed to initiate cell migration into the cell-free centre (defined as the day of migration, DoM 0). On DoM 1, the cells were exposed to test compounds by the addition of a 5× concentrated toxicant solution. After a further 24 h (DoM 2), cell migration and viability were assessed. The cells were stained with 0.5 µM calcein-AM and 1 µg/mL Hoechst 33342 (both from Sigma-Aldrich, Steinheim, Germany). High content imaging was performed, and data were analysed using the RingAssay V1 software (http://invitrotox.uni-konstanz.de/, accessed on 3 February 2025).
In the first step, matched technical replicates were averaged. […] For visualisation, GraphPad Prism 9 was used.
The supernatant was used further.

[2] = Homo sapiens, benchmark response 25%, neurite area, 24 h exposure, three independent experiments

| SMILES | IC25 (LUHMES cells; [2]) [nM] | fold change between BMC25 values of parent and metabolite (potency ratio, parent divided by metabolite) (LUHMES cells) [fold] | EC25 migration (+NADPH) [1] [nM] | EC25 migration (−NADPH) [1] [nM] | fold change of potency (EC25) between NADPH-independent and -dependent metabolite mixtures [1] | IC25 (LUHMES cells; Homo sapiens, 24 h) [nM] | IC25 (LUHMES cells; benchmark response 25%, neurite area, 24 h exposure, three independent experiments) [nM] |
| --- | --- | --- | --- | --- | --- | --- | --- |
| O=C(c1ccccc1)c1ccc(O)cc1 [4-Hydroxybenzophenone] | 78000 | > 6 | – | – | – | – | – |
| CN(c1c(Br)cc(Br)cc1Br)c1c([N+](=O)[O-])cc([N+](=O)[O-])cc1C(F)(F)F [Bromethalin] | – | – | 26 | 790 | about 30 fold | 790 | 790 |
| CCOCn1c(-c2ccc(Cl)cc2)c(C#N)c(Br)c1C(F)(F)F [Chlorfenapyr] | > 10000 | – | 600 | 9000 | 15 fold | – | – |
| N#Cc1c(-c2ccc(Cl)cc2)[nH]c(C(F)(F)F)c1Br [Tralopyril] | 350 | > 29 | – | – | – | – | – |

From paper PMC12428754, “Testing Strategies for Metabolite-Mediated Neurotoxicity” (International Journal of Molecular Sciences, 2025)
